The assay addresses T1, BAL (benzaldehyde lyase) (Pseudomonas fluorescens, UniProt Q9F4L3).
T1 sequence (Q9F4L3 1-563): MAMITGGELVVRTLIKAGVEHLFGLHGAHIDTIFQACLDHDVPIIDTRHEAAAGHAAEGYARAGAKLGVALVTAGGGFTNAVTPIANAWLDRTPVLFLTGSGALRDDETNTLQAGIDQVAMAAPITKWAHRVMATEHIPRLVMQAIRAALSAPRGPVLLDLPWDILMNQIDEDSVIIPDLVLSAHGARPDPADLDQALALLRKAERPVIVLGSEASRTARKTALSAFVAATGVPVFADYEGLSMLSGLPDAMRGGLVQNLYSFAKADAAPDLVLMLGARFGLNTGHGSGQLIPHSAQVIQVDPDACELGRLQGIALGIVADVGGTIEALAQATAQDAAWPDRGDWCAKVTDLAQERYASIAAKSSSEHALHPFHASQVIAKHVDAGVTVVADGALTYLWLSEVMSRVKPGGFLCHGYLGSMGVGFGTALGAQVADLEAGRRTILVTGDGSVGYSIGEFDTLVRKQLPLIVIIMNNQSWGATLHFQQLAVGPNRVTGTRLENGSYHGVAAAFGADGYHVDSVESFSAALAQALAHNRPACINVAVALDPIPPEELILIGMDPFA
Nature of the assay: CD titration, Hill fit. To be noted: pH 8.0, 50 mM Tris, 0.2 mM ThDP, 1 mM MgCl2, 30 °C; covalent adduct with ThDP. The format is binding.

We go through one compound from paper PMC3985856 (Biochemistry, 2014).

One may read the Kd as the free concentration of one partner at which half of the binding sites on the other are occupied at equilibrium, for simple one-to-one binding. Low readings indicate higher affinity, high ones lower affinity. As to `O=C(O)C(=O)/C=C/c1ccc(Cl)cc1` [CPB, (E)-4-(4-chlorophenyl)-2-oxo-3-butenoic acid], the Kd worked out at 1100 µM.
